The compounds below were run on TEAD-dependent transcription (assay: Inhibitor activity against TEAD-dependent transcription in a cell-based reporter assay (MSTO-211H+12XGTIIC luciferase)). Conditions: Homo sapiens; MSTO-211H+12XGTIIC cells, 24 hours incubation, luciferase luminescence normalized to cell viability fluorescence, geometric mean; read-out: MSTO-211H GMean IC50 (uM) Cell Assay Reporter Cell Variant: TEAD.
Description: Determine Inhibitor Activity Against TEAD-Dependent Transcription in a Cell-Based Reporter Assay
The human mesothelioma cell line MSTO-211H was stably transfected with a pGL4.21 plasmid containing a synthetic promoter with 12 copies of the GTIIC TEAD response element that drives the expression of a luciferase reporter gene^1 using Lipofectamine transfection reagent (Thermo Fisher). Transfected cells were selected using puromycin and single cell clones expressing this construct (referred to as MSTO-211H+12XGTIIC) were generated by limiting dilution. MSTO-211H cells was characterized by genetic alterations in key components of the Hippo pathway^2, resulting in up-regulation of YAP/TEAD-mediated transcription. […] To evaluate TEAD inhibitors, the MSTO-211H+12XGTIIC cell line was seeded in a 96-well plate in 50 μL of culture media at 1×10^4 cells per well and incubated at 37° C. overnight. Serial dilutions of compounds (in total volume of 50 μL of culture media) were added to the cells and incubated at 37° C. for 24 hours. Each plate included cells treated with DMSO as high controls and cells treated with 20 μM of the reference compound K-975 (a known TEAD inhibitor)^3 as low controls. Cell viability was assayed by the addition of 25 μL of CellTiter-Fluor reagent (Promega) followed by a 30-minute incubation at 37° C. and quantification of the fluorescence signal (Ex400/Em505). Subsequently, luciferase expression was assayed by the addition of 25 μL of ONE-Glo reagent (Promega) followed by a 10-minute incubation at room temperature and quantification of the luminescence signal. The luminescence signal was normalized to the fluorescence signal to correct for any loss in cell viability over the 24-hour compound incubation period. The percentage of inhibition of normalized luminescence signal, indicative of compound-mediated inhibition of TEAD-dependent transcription, at individual compound concentrations relative to high and low controls was calculated. The data were analyzed by using nonlinear regression to generate IC50 values for individual compounds.
Work on `C=CC(=O)N1CCc2ccc(OCC3CCC(F)(F)CC3)cc2C1` [P-0080, 1-(7-((4,4-difluorocyclohexyl)methoxy)-3,4-dihydroisoquinolin-2(1H)-yl)prop-2-en-1-one] yielded an IC50 of 0.001 to 0.5 µM.
Compound `C=CC(=O)N1CCc2ccc(OCc3cc(C)on3)cc2C1` [P-0081, 1-(7-((5-methylisoxazol-3-yl)methoxy)-3,4-dihydroisoquinolin-2(1H)-yl)prop-2-en-1-one] has an IC50 of over 20 µM.
`C=CC(=O)N1CCc2ccc(OC3CCC(C)(C)CC3)cc2C1` [P-0082, 1-(7-((4,4-dimethylcyclohexyl)oxy)-3,4-dihydroisoquinolin-2(1H)-yl)prop-2-en-1-one] gave an IC50 of 0.001 to 0.5 µM.
In the case of `C=CC(=O)N1CCc2ccc(OCc3cccc(C(F)(F)F)c3)cc2C1` [P-0083, 1-(7-((3-(trifluoromethyl)benzyl)oxy)-3,4-dihydroisoquinolin-2(1H)-yl)prop-2-en-1-one], the IC50 is reported as 0.001 to 0.5 µM.
With `C=CC(=O)N1CCc2ccc(OC3CCS(=O)(=O)CC3)cc2C1` [P-0084, 1-(7-((1,1-dioxidotetrahydro-2H-thiopyran-4-yl)oxy)-3,4-dihydroisoquinolin-2(1H)-yl)prop-2-en-1-one] the IC50 was 0.001 to 0.5 µM.
Work on `C=CC(=O)N1CCc2ccc(OC3CCC(F)(F)C3)cc2C1` (stereo not shown) [P-0085, 1-(7-((3,3-difluorocyclopentyl)oxy)-3,4-dihydroisoquinolin-2(1H)-yl)prop-2-en-1-one] yielded an IC50 of 0.001 to 0.5 µM.
With `C=CC(=O)N1CCc2ccc(O[C@@H]3C[C@@H]4[C@H](C3)C4(F)F)cc2C1` [P-0086, 1-(7-(((1R,3s,5S)-6,6-difluorobicyclo[3.1.0]hexan-3-yl)oxy)-3,4-dihydroisoquinolin-2(1H)-yl)prop-2-en-1-one] the IC50 was 0.001 to 0.5 µM.
`C=CC(=O)N1CCc2ccc(NC3CC4C(C3)C4(F)F)cc2C1` (stereo not shown) [P-0087, 1-(7-((6,6-difluorobicyclo[3.1.0]hexan-3-yl)amino)-3,4-dihydroisoquinolin-2(1H)-yl)prop-2-en-1-one] gave an IC50 of 0.001 to 0.5 µM.
For `C=CC(=O)N1CCc2ccc(OCc3ccccc3C(F)(F)F)cc2C1` [P-0088, 1-(7-((2-(trifluoromethyl)benzyl)oxy)-3,4-dihydroisoquinolin-2(1H)-yl)prop-2-en-1-one], the IC50 was 0.001 to 0.5 µM.
Work on `C=CC(=O)N1CCc2ccc(NCc3ccccc3)cc2C1` [P-0089, 1-(7-(benzylamino)-3,4-dihydroisoquinolin-2(1H)-yl)prop-2-en-1-one] yielded an IC50 of 0.001 to 0.5 µM.
`C=CC(=O)N1CCc2ccc(NCc3cccc(F)c3)cc2C1` [P-0090, 1-(7-((3-fluorobenzyl)amino)-3,4-dihydroisoquinolin-2(1H)-yl)prop-2-en-1-one] gave an IC50 of 0.001 to 0.5 µM.
`C=CC(=O)N1CCc2ccc(OCc3cccc(F)c3)cc2C1` [P-0091, 1-(7-((3-fluorobenzyl)oxy)-3,4-dihydroisoquinolin-2(1H)-yl)prop-2-en-1-one] gave an IC50 of 0.001 to 0.5 µM.
In the case of `C=CC(=O)N1CCc2ccc(Oc3cccc(C#N)c3)cc2C1` [P-0092, 3-((2-acryloyl-1,2,3,4-tetrahydroisoquinolin-7-yl)oxy)benzonitrile], the IC50 is reported as 0.001 to 0.5 µM.
`C=CC(=O)N1Cc2cc(Oc3ccc(C(F)(F)F)nc3)ccc2C(C)C1` (stereo not shown) [P-0093, 1-(4-methyl-7-((6-(trifluoromethyl)pyridin-3-yl)oxy)-3,4-dihydroisoquinolin-2(1H)-yl)prop-2-en-1-one] gave an IC50 of 0.001 to 0.5 µM.
Work on `C=CC(=O)N1Cc2cc(OC3CCC(F)(F)CC3)ccc2C(C)C1` (stereo not shown) [P-0094, 1-(7-((4,4-difluorocyclohexyl)oxy)-4-methyl-3,4-dihydroisoquinolin-2(1H)-yl)prop-2-en-1-one] yielded an IC50 of 0.001 to 0.5 µM.
Compound `C=CC(=O)N1CCc2c(F)cc(OC3CCC(F)(F)CC3)cc2C1` [P-0095, 1-(7-((4,4-difluorocyclohexyl)oxy)-5-fluoro-3,4-dihydroisoquinolin-2(1H)-yl)prop-2-en-1-one] has an IC50 of 0.001 to 0.5 µM.
With `C=CC(=O)N1CCc2ccc(OCc3ccccc3F)cc2C1` [P-0096, 1-(7-((2-fluorobenzyl)oxy)-3,4-dihydroisoquinolin-2(1H)-yl)prop-2-en-1-one] the IC50 was over 20 µM.
`C=CC(=O)N1CCc2ccc(NC3CCC4(CC3)CC4)cc2C1` [P-0097, 1-(7-(spiro[2.5]octan-6-ylamino)-3,4-dihydroisoquinolin-2(1H)-yl)prop-2-en-1-one] gave an IC50 of 0.5 to 20 µM.
Compound `C=CC(=O)N1CCc2cc(F)c(Oc3ccc(C(F)(F)F)c(F)c3)cc2C1` [P-0098, 1-(6-fluoro-7-(3-fluoro-4-(trifluoromethyl)phenoxy)-3,4-dihydroisoquinolin-2(1H)-yl)prop-2-en-1-one] has an IC50 of 0.001 to 0.5 µM.
`C=CC(=O)N1CCc2cc(C)c(Oc3ccc(C(F)(F)F)c(F)c3)cc2C1` [P-0099, 1-(7-(3-fluoro-4-(trifluoromethyl)phenoxy)-6-methyl-3,4-dihydroisoquinolin-2(1H)-yl)prop-2-en-1-one] was tested, and the IC50 was 0.001 to 0.5 µM.
`C=CC(=O)N1CCc2ccc(NCC3CCC(F)(F)CC3)cc2C1` [P-0100, 1-(7-(((4,4-difluorocyclohexyl)methyl)ami-no)-3,4-dihydroisoquinolin-2(1H)-yl)prop-2-en-1-one] showed an IC50 of 0.001 to 0.5 µM.
`C=CC(=O)N1CCc2c(F)cc(Oc3ccc(C(F)(F)F)nc3)cc2C1` [P-0101, 1-(5-fluoro-7-((6-(trifluoromethyl)pyridin-3-yl)oxy)-3,4-dihydroisoquinolin-2(1H)-yl)prop-2-en-1-one] was tested, and the IC50 was 0.001 to 0.5 µM.
Compound `C=CC(=O)N1CCc2cc(F)c(OC3CCC(F)(F)CC3)cc2C1` [P-0102, 1-(7-((4,4-difluorocyclohexyl)oxy)-6-fluoro-3,4-dihydroisoquinolin-2(1H)-yl)prop-2-en-1-one] has an IC50 of 0.001 to 0.5 µM.
Work on `C=CC(=O)N1CCc2cc(F)c(Oc3ccc(C(F)(F)F)cc3)cc2C1` [P-0103, 1-(6-fluoro-7-(4-(trifluoromethyl)phenoxy)-3,4-dihydroisoquinolin-2(1H)-yl)prop-2-en-1-one] yielded an IC50 of 0.001 to 0.5 µM.
`C=CC(=O)N1CCc2ccc(Cc3ccc(C(F)(F)F)nc3)cc2C1` [P-0104, 1-(7-((6-(trifluoromethyl)pyridin-3-yl)methyl)-3,4-dihydroisoquinolin-2(1H)-yl)prop-2-en-1-one] showed an IC50 of 0.001 to 0.5 µM.
With `C=CC(=O)N1CCc2ccc(C(F)c3ccc(C(F)(F)F)nc3)cc2C1` (stereo not shown) [P-0105, 1-(7-(fluoro(6-(trifluoromethyl)pyridin-3-yl)methyl)-3,4-dihydroisoquinolin-2(1H)-yl)prop-2-en-1-one] the IC50 was 0.5 to 20 µM.
For `C=CC(=O)N1CCc2ccc(C(F)(F)c3ccc(C(F)(F)F)nc3)cc2C1` [P-0106, 1-(7-(difluoro(6-(trifluoromethyl)pyridin-3-yl)methyl)-3,4-dihydroisoquinolin-2(1H)-yl)prop-2-en-1-one], the IC50 was 0.001 to 0.5 µM.
`C=CC(=O)N1CCc2ccc(OCC3CC(F)(F)C3)cc2C1` [P-0107, 1-(7-((3,3-difluorocyclobutyl)methoxy)-3,4-dihydroisoquinolin-2(1H)-yl)prop-2-en-1-one] gave an IC50 of 0.001 to 0.5 µM.
`C=CC(=O)N1CCc2ccc(OCC34CC5CC(CC(C5)C3)C4)cc2C1` [P-0108, 1-(7-(((3r,5r,7r)-adamantan-1-yl)methoxy)-3,4-dihydroisoquinolin-2(1H)-yl)prop-2-en-1-one] showed an IC50 of 0.001 to 0.5 µM.
With `C=CC(=O)N1CCc2ccc(Oc3ccc(C4(C)CC4)cc3)cc2C1` [P-0109, 1-(7-(4-(1-methylcyclopropyl)phenoxy)-3,4-dihydroisoquinolin-2(1H)-yl)prop-2-en-1-one] the IC50 was 0.001 to 0.5 µM.
`C=CC(=O)N1CCc2ccc(OCC34CCC(CC3)C4)cc2C1` [P-0110, 1-(7-(bicyclo[2.2.1]heptan-1-ylmethoxy)-3,4-dihydroisoquinolin-2(1H)-yl)prop-2-en-1-one] showed an IC50 of 0.001 to 0.5 µM.
In the case of `C=CC(=O)N1CCc2ccc(OCC3CC4C(C3)C4(F)F)cc2C1` (stereo not shown) [P-0111, 1-(7-((6,6-difluorobicyclo[3.1.0]hexan-3-yl)methoxy)-3,4-dihydroisoquinolin-2(1H)-yl)prop-2-en-1-one], the IC50 is reported as 0.001 to 0.5 µM.
Work on `C=CC(=O)N1Cc2cc(Oc3ccc(C(F)(F)F)cc3)ccc2C[C@H]1C(=O)OC` [P-0112, methyl (S)-2-acryloyl-7-(4-(trifluoromethyl)phenoxy)-1,2,3,4-tetrahydroisoquinoline-3-carboxylate] yielded an IC50 of 0.001 to 0.5 µM.
`C=CC(=O)N1CCc2c(F)cc(Oc3ccc(C(F)(F)F)cc3)cc2C1` [P-0113, 1-(5-fluoro-7-(4-(trifluoromethyl)phenoxy)-3,4-dihydroisoquinolin-2(1H)-yl)prop-2-en-1-one] gave an IC50 of 0.001 to 0.5 µM.
With `C=CS(=O)(=O)N1CCc2ccc(Oc3ccc(C(F)(F)F)cc3)cc2C1` [P-0114, 7-(4-(trifluoromethyl)phenoxy)-2-(vinylsulfonyl)-1,2,3,4-tetrahydroisoquinoline] the IC50 was 0.5 to 20 µM.
Compound `C=CC(=O)N1CCc2ccc(Oc3ccc(C#N)cc3)cc2C1` [P-0115, 4-((2-acryloyl-1,2,3,4-tetrahydroisoquinolin-7-yl)oxy)benzonitrile] has an IC50 of 0.001 to 0.5 µM.
`CN(C)C/C=C/C(=O)N1CCc2ccc(Oc3ccc(C(F)(F)F)cc3)cc2C1` [P-0116, (E)-4-(dimethylamino)-1-(7-(4-(trifluoromethyl)phenoxy)-3,4-dihydroisoquinolin-2(1H)-yl)but-2-en-1-one] showed an IC50 of 0.5 to 20 µM.
